Assay results published in patent US8841290B2, “Substituted tetrahydronaphthalenes, method for the production thereof, and use thereof as drugs” (Sanofi, priority 2009, dated 2014).
Converted amounts (≈) assume the structure as drawn.

Legend:
human MCH receptor = target: T1, human MCH receptor (Homo sapiens, UniProt Q99705); test: calcium mobilization assay (FLIPR), functional IC50 of MCH1R antagonists; assay type: cell-based; conditions: recombinant HEK293 cell line expressing the human MCH receptor; calcium flux after addition of agonist (MCH); read-out: IC50
T1 construct: expressed in transfected cells
Excerpt: A difference from the reference was, however, the use of the plasmid pEAK8 from EDGE Biosystems (USA) for the construction of the expression vector. The host used for the transfection was a transformed HEK cell line named “PEAK Stable Cells” (likewise from EDGE Biosystems). Functional measurements of the cellular calcium flux after addition of agonist (MCH) in the presence of ligand of the invention took place with the aid of the FLIPR apparatus from Molecular Devices (USA), using protocols of the apparatus manufacturer.

[1] = nephelometric (kinetic) solubility determination, phosphate buffer pH 7.4; assay type: physicochemical; conditions: aqueous buffer, kinetic from dmso stock, nephelometric, Table 7
Description: A DMSO solution of the test compound (2.5 mM; 0.5 μl) is pipetted into 200 μl of an aqueous test solution (e.g. phosphate-buffered saline, 10×, 1M, Sigma, adjusted to 10 mM, pH 7.4) in a 96-well microtiter plate, and the turbidity is measured at the resulting theoretical concentration for the test compound of 6.25 μM using a nephelometer (e.g. Nephelostar Galaxy, BMG Labtech). The concentration of the test compound in the aqueous test solution is then raised to a theoretical 12.5 μM by adding further DMSO solution (2.5 mM; 0.5 μl), and the turbidity measurement is repeated. Further additions of DMSO solutions (1 μl, 2.5 mM; 0.5 μl, 10 mM; then 9×1 μl, 10 mM resulting in theoretical concentrations of 25 μM, 50 μM, 100 μM, 150 μM, 200 μM, 250 μM, 300 μM, 350 μM, 400 μM, 450 μM and 500 μM) with turbidity measurement in between complete the measurement process.
Evaluation: The turbidity values from the nephelometer are plotted against the theoretical concentration of the test compound in the aqueous test solution. As soon as a significant turbidity is detected (e.g. 5 times above the control value of the aqueous test solution) at a theoretical concentration, the level of concentration below this is stated to be the solubility limit of the test compound in the test solution. Thus, the maximum possible measurement range emerges as values<6.25 μM, 6.25-500 μM and >500 μM.

T1 sequence (Q99705 whole entry): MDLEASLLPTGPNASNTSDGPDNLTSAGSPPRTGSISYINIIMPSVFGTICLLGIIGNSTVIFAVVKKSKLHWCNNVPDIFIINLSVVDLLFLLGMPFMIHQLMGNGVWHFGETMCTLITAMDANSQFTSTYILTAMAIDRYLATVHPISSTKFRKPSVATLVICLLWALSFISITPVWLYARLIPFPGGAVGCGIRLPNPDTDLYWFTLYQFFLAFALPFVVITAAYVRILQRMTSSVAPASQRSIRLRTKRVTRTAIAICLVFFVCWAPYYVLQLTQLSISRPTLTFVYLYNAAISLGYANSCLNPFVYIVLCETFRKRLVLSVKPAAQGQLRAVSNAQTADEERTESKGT

| SMILES | IC50 (human MCH receptor) [nM] | solubility kinetic [1] [µg/mL] |
| --- | --- | --- |
| CN(C(=O)c1ccc(OCC2CC2)cc1)[C@H]1CCc2cc(CN3C[C@@H]4CC[C@H]3C4)ccc2C1 [Example 7-02] | 831 | > 279 |
| CN(C(=O)c1ccc(OCC2CC2)cc1)[C@H]1CCc2cc(CN3CC4CCC3CC4)ccc2C1 [Example 7-03] | 1370 | > 286 |
| COC1CCN(Cc2ccc3c(c2)CC[C@H](N(C)C(=O)c2ccc(OCC4CC4)cc2)C3)CC1 [Example 7-05] | 625 | > 288 |
| CN(C(=O)c1ccc(OCC2CC2)cc1)[C@H]1CCc2cc(CN3CCC(O)CC3)ccc2C1 [Example 7-06] | 508 | > 281 |
| CN(C(=O)c1ccc(OCC2CC2)cc1)[C@H]1CCc2cc(CNC3CCCCC3)ccc2C1 [Example 7-07] | 336 | > 280 |
| CN(C(=O)c1ccc(OCC2CC2)cc1)[C@H]1CCc2cc(CNCC3CC3)ccc2C1 [Example 7-08] | 420 | > 266 |
| CN(C(=O)c1ccc(OCC2CC2)cc1)[C@H]1CCc2cc(CN3CCC3)ccc2C1 [Example 7-09] | 261 | > 259 |
| CN(C(=O)c1ccc(OCC2CC2)cc1)[C@H]1CCc2cc(CNC3CCC3)ccc2C1 [Example 7-10] | 1100 | > 266 |
| CN(C(=O)c1ccc(OCC2CC2)cc1)[C@H]1CCc2cc(CNCC(C)(C)C)ccc2C1 [Example 7-11] | 898 | > 274 |
| CN(C(=O)c1ccc(OCC2CC2)cc1)[C@H]1CCc2cc(CN3CCCCCC3)ccc2C1 [Example 7-15] | 336 | > 280 |
| CC(C)CCNCc1ccc2c(c1)CC[C@H](N(C)C(=O)c1ccc(OCC3CC3)cc1)C2 [Example 7-16] | 259 | 137 (≈ 315 µM) |
| CCN(CC)Cc1ccc2c(c1)CC[C@H](N(C)C(=O)c1ccc(OCC3CC3)cc1)C2 [Example 7-18] | 668 | > 267 |
| CCC(COC)NCc1ccc2c(c1)CC[C@H](N(C)C(=O)c1ccc(OCC3CC3)cc1)C2 (stereo partly drawn) [Example 7-19] | 563 | > 282 |
| COC[C@H](C)NCc1ccc2c(c1)CC[C@H](N(C)C(=O)c1ccc(OCC3CC3)cc1)C2 [Example 7-24] | 384 | > 275 |
| COCC(C)(C)CNCc1ccc2c(c1)CC[C@H](N(C)C(=O)c1ccc(OCC3CC3)cc1)C2 [Example 7-25] | 286 | > 289 |
| CN(C(=O)c1ccc(OCC2CC2)cn1)[C@H]1CCc2cc(CN3CCCCCC3)ccc2C1 [Example 7-27] | 756 | 168 (≈ 375 µM) |
| CN(C(=O)c1ccc(OCC2CC2)cn1)[C@H]1CCc2cc(CN3CC4CCC3CC4)ccc2C1 [Example 7-33] | 1100 | > 287 |
| CN(C(=O)c1ccc(OCC2CC2)cn1)[C@H]1CCc2cc(CNCC(C)(C)C)ccc2C1 [Example 7-34] | 375 | > 275 |

Stronger by IC50 (human MCH receptor), values ahead:

| IC50 (human MCH receptor) [nM] | solubility kinetic [1] [µg/mL] | SMILES |
| --- | --- | --- |
| 245 | 82 (≈ 190 µM) | CCCCOc1ccc(C(=O)N[C@H]2CCc3cc(CN4CC5CCC4C5)ccc3C2)cc1 (stereo partly drawn) [Example 7-01] |
| 141 | > 302 | CN(C(=O)c1ccc(OCC2CC2)cc1)[C@H]1CCc2cc(CN3CCC(C(C)(C)O)CC3)ccc2C1 [Example 7-04] |
| 94 | 3 (≈ 6.93 µM) | O=C(N[C@H]1CCc2cc(CN3CCCCCC3)ccc2C1)c1ccc(OCC2CC2)cc1 [Example 7-12] |
| 93 | 7 (≈ 16.6 µM) | CC(C)(C)CNCc1ccc2c(c1)CC[C@H](NC(=O)c1ccc(OCC3CC3)cc1)C2 [Example 7-13] |
| 92 | > 272 | O=C(N[C@H]1CCc2cc(CN3C[C@@H]4CC[C@H]3C4)ccc2C1)c1ccc(OCC2CC2)cc1 [Example 7-14] |
| 133 | > 282 | CCOCCCNCc1ccc2c(c1)CC[C@H](N(C)C(=O)c1ccc(OCC3CC3)cc1)C2 [Example 7-20] |
| 133 | > 275 | COCCCNCc1ccc2c(c1)CC[C@H](N(C)C(=O)c1ccc(OCC3CC3)cc1)C2 [Example 7-21] |
| 148 | > 288 | COCC1(CNCc2ccc3c(c2)CC[C@H](N(C)C(=O)c2ccc(OCC4CC4)cc2)C3)CC1 [Example 7-22] |
| 108 | > 275 | CCOCCNCc1ccc2c(c1)CC[C@H](N(C)C(=O)c1ccc(OCC3CC3)cc1)C2 [Example 7-23] |
| 149 | > 282 | CC(C)OCCNCc1ccc2c(c1)CC[C@H](N(C)C(=O)c1ccc(OCC3CC3)cc1)C2 [Example 7-26] |
| 152 | > 288 | CN(C(=O)c1ccc(OCC2CC2)cn1)[C@H]1CCc2cc(CN3CCC(C)(C)CC3)ccc2C1 [Example 7-28] |
| 215 | > 281 | CC1CCN(Cc2ccc3c(c2)CC[C@H](N(C)C(=O)c2ccc(OCC4CC4)cn2)C3)CC1 [Example 7-29] |
| 156 | > 281 | CN(C(=O)c1ccc(OCC2CC2)cn1)[C@H]1CCc2cc(CNCC3CCCC3)ccc2C1 [Example 7-30] |
| 190 | > 281 | CCC1(CNCc2ccc3c(c2)CC[C@H](N(C)C(=O)c2ccc(OCC4CC4)cn2)C3)CC1 [Example 7-31] |
| 145 | > 275 | CC(C)CCNCc1ccc2c(c1)CC[C@H](N(C)C(=O)c1ccc(OCC3CC3)cn1)C2 [Example 7-32] |
